The record followed here is ChEMBL document CHEMBL4219182, “One-pot, multicomponent synthesis of 2,3-disubstituted quinazolin-ones with potent and selective activity against Toxoplasma gondii” (Bioorg Med Chem Lett, 2018).

For series [1], the system named is Toxoplasma gondii. As to the kind of experiment: Antiparasitic activity against tachyzoite stage of Toxoplasma gondii expressing beta-gal infected in HFF after 4 days by […] based assay. The class given is functional, organism-based. As to conditions: 96 h.
Series [2] is described as follows: Therapeutic index, ratio of TD50 for HFF to IC50 for tachyzoite stage of Toxoplasma gondii expressing beta-gal infected in HFF. The class given is toxicity. Conditions: human; read-out: TI.
A short description of series [3]: Cytotoxicity against HFF by CellTiter96 AQueous one solution cell proliferation assay. Conditions: human, HFF cells; read-out: TD50 (the source's name). The class given is cell-based.
Series [4] relates to Toxoplasma gondii. As to the kind of experiment: Antiparasitic activity against tachyzoite stage of Toxoplasma gondii infected in HFF assessed as reduction in parasite attachment to host cell at 10 uM pretreated with parasite for 20 mins followed by infection in HFF measured by immunofluorescence staining based assay. The class given is functional, organism-based.
The test system of series [5] is Toxoplasma gondii. As to the kind of experiment: Antiparasitic activity against tachyzoite stage of Toxoplasma gondii infected in HFF assessed as reduction in parasite invasion at 10 uM pretreated with parasite for 20 mins followed by infection in HFF measured by immunofluorescence staining based assay. The class given is functional, organism-based.
Series [6] relates to Toxoplasma gondii. As to the kind of experiment: Antiparasitic activity against tachyzoite stage of Toxoplasma gondii infected in HFF assessed as inhibition of parasite replication by measuring parasitophorous vacuoles containing 1 or 2 tachyzoites at 10 uM after 24 hrs by microscopic analysis. The class given is functional.
Series [7] deals with Toxoplasma gondii. Briefly: Antiparasitic activity against tachyzoite stage of Toxoplasma gondii infected in HFF assessed as inhibition of parasite replication by measuring increase in parasitophorous vacuoles containing 1 tachyzoites at 10 uM after 24 hrs by microscopic analysis. The class given is functional, organism-based.
Series [8] relates to Toxoplasma gondii. As to the kind of experiment: Antiparasitic activity against tachyzoite stage of Toxoplasma gondii infected in HFF assessed as inhibition of parasite replication by measuring parasitophorous vacuoles containing 1, 2, 4 and 8 tachyzoites at 10 uM after 24 hrs by microscopic analysis. The class given is functional, organism-based.

The IC50 is the concentration needed to halve the response being measured. Low readings indicate greater potency in that assay, high ones weaker potency in that assay. Usually IC90 stands for the concentration needed for an effect of 90%. Low readings indicate greater potency, high ones weaker potency. The term inhibition denotes the percentage by which the read-out fell short of the control.

Activity calls are given as the source filed them. No cut-off for these calls is given here. Where only a bound is given, the exact number is not on record here.

Take `CN(C)c1ccc(-c2nc3ccccc3c(=O)n2Cc2ccccc2)cc1`: in series [1], the IC50 came out at 12 µM and the IC90 turned out to be 60 µM. The selectivity ratio in series [2] was found to be 11. The CC50 in series [3] was determined as 133 µM.

For `COc1ccc(-n2c(-c3ccc(OCc4ccccc4)cc3)nc3ccccc3c2=O)cc1`, the outcome in series [4] and in series [5] was Active. For the same compound, the IC50 in series [1] is 4 µM. Also, it took 14 µM to reach the 90% level in series [1] (IC90). Also, the selectivity ratio in series [2] stood at 1. The CC50 in series [3] amounted to 4 µM.

In series [1], `Oc1nc(-c2cccnc2)nc2ccccc12` came in with an IC50 of 94 µM and an IC90 of 225 µM. For the same compound, in series [2], the selectivity ratio was found to be 3. In addition, in series [3], the CC50 is not below 320 µM.

For the compound `O=c1c2ccccc2nc(-c2ccc(OCc3ccccc3)cc2)n1C1CCCCC1`, the result in series [4] was inactive. Besides, the outcome in series [5] was inactive. Further, the inhibition at 10 µM in series [6] was more than 70%. In addition, in series [1], half-maximal inhibition (IC50) required 6 µM and the IC90 was 46 µM. In addition, the selectivity ratio in series [2] was 53. In series [3], the CC50 was not below 320 µM.

As for `Oc1nc(-c2ccc(F)cc2)nc2ccccc12`, in series [1], half-maximal inhibition (IC50) was put at 29 µM and the 90% effect level (IC90) was put at 260 µM. Besides, the selectivity ratio in series [2] worked out at 11. The CC50 in series [3] was not below 320 µM.

In series [1], `O=c1[nH]c(-c2ccc(OC(F)(F)F)cc2)nc2ccccc12` returned an IC50 of 27 µM and an IC90 of 447 µM. The selectivity ratio in series [2] is 12. In series [3], the CC50 was not below 320 µM.

In series [1], `CC(C)CCn1c(-c2ccc(N(C)C)cc2)nc2ccccc2c1=O` registered an IC50 of 35 µM and an IC90 of 116 µM. Also, the selectivity ratio in series [2] is 2. In addition, the CC50 in series [3] was 85 µM.

On to `CN(C)c1ccc(-c2nc3ccccc3c(=O)n2C2CCCCC2)cc1`, for which, in series [1], the IC50 was 15 µM and the 90% effect level (IC90) was put at 67 µM. In series [2], the selectivity ratio came to 7. Besides, the CC50 in series [3] came to 112 µM.

Regarding `CCCCCCCCCCn1c(-c2ccc(OCc3ccccc3)cc2)nc2ccccc2c1=O`, in series [1], inhibition was half-maximal at 25 µM (IC50) and the IC90 came to 119 µM. Moreover, the selectivity ratio in series [2] worked out at 13. For the same compound, the CC50 in series [3] was not below 320 µM.

For `O=c1c2ccccc2nc(-c2ccc(OCc3ccccc3)cc2)n1-c1ccc(Br)cc1`, the result in series [5] was Active. Further, the inhibition entry in series [7] is “Active”. Moreover, the inhibition at 10 µM in series [6] was more than 75%. In series [1], the IC50 came out at 3 µM and it took 12 µM to reach the 90% level (IC90). Further, the selectivity ratio in series [2] amounted to 2. The CC50 in series [3] was 5 µM.

With `O=c1[nH]c(-c2ccc(OCc3ccccc3)cc2)nc2ccccc12`, in series [1], the IC50 is 153 µM and the 90% effect level (IC90) was put at 4990 µM. Moreover, the selectivity ratio in series [2] came to 2. Moreover, the CC50 in series [3] was not below 320 µM.

For `O=c1[nH]c(-c2ccc(Br)cc2)nc2ccccc12`, in series [4], the result was Active. In addition, the outcome in series [5] was Active. In addition, the inhibition entry in series [7] is “Active”. Besides, in series [1], the IC50 came out at 92 µM and it took 414 µM to reach the 90% level (IC90). Also, the selectivity ratio in series [2] worked out at 3. The CC50 in series [3] was not below 320 µM.

Turning to `CN(C)c1ccc(-c2nc3ccccc3c(=O)n2CCc2ccc(O)cc2)cc1`, in series [1], 112 µM corresponded to half-maximal inhibition (IC50) and the IC90 is 353 µM. Moreover, in series [2], the selectivity ratio came out at 2. In addition, in series [3], the CC50 came out at 196 µM.

In series [1], `COc1ccc(-n2c(-c3ccc(Br)cc3)nc3ccccc3c2=O)cc1` came in with an IC50 of 32 µM and an IC90 of 81 µM. In addition, in series [2], the selectivity ratio amounted to 10. In addition, in series [3], the CC50 is not below 320 µM.

On to `O=c1c2ccccc2nc(-c2ccc(OCc3ccccc3)cc2)n1CCc1ccc(O)cc1`, for which, in series [1], the IC50 worked out at 17 µM and it took 52 µM to reach the 90% level (IC90). Moreover, in series [2], the selectivity ratio is 13. In addition, the CC50 in series [3] is 229 µM.

On to `CCCCCCn1c(-c2ccc(N(C)C)cc2)nc2ccccc2c1=O`, for which, in series [1], 18 µM corresponded to half-maximal inhibition (IC50) and the IC90 turned out to be 52 µM. Also, the selectivity ratio in series [2] turned out to be 3. The CC50 in series [3] was determined as 50 µM.

In series [1], `O=c1c2ccccc2nc(-c2ccc(OCc3ccccc3)cc2)n1CCc1cc2ccccc2[nH]1` yielded an IC50 of 154 µM and an IC90 of 724 µM. In series [2], the selectivity ratio worked out at 2. The CC50 in series [3] was not below 320 µM.

`O=c1c2ccccc2nc(-c2ccc(OCc3ccccc3)cc2)n1Cc1ccccc1`: the result in series [4] was inactive. The result in series [5] was inactive. Further, the inhibition at 10 µM in series [6] is more than 70%. In series [1], this compound returned an IC50 of 13 µM and an IC90 of 71 µM. Further, the selectivity ratio in series [2] was determined as 25. Further, the CC50 in series [3] was not below 320 µM.

With `COc1ccc(-c2nc3ccccc3c(=O)[nH]2)cc1`, in series [1], the midpoint of inhibition, the IC50, lay at 20 µM and the IC90 is 121 µM. For the same compound, the selectivity ratio in series [2] amounted to 6. In series [3], the CC50 turned out to be 125 µM.

In the case of `CC(C)=CCCC(C)=CCn1c(-c2ccc(OCc3ccccc3)cc2)nc2ccccc2c1=O`, the result in series [4] was inactive. Also, in series [5], the result was inactive. The inhibition at 10 µM in series [6] is more than 70%. In series [1], this compound registered an IC50 of 7 µM and an IC90 of 58 µM. The selectivity ratio in series [2] is 46. Also, the CC50 in series [3] is not below 320 µM.

Turning to `COc1ccc(-c2nc3ccccc3c(=O)n2-c2ccc(Br)cc2)cc1`, in series [1], the IC50 was 31 µM and the IC90 was 83 µM. For the same compound, in series [2], the selectivity ratio is 6. Moreover, in series [3], the CC50 is 196 µM.

In series [1], `CCCCCCn1c(-c2ccc(OC)cc2)nc2ccccc2c1=O` gave an IC50 of 10 µM and an IC90 of 48 µM. Also, the selectivity ratio in series [2] amounted to 4. In addition, in series [3], the CC50 is 42 µM.

Consider `CCCCCCn1c(-c2ccc(OCc3ccccc3)cc2)nc2ccccc2c1=O`, for which the result in series [4] was Active. In series [5], the result was Active. The inhibition result in series [8] is “inactive”. In series [1], this compound gave a half-inhibitory concentration (IC50) of 10 µM and an IC90 of 45 µM. The selectivity ratio in series [2] was determined as 18. In addition, the CC50 in series [3] worked out at 178 µM.

With `CC(C)CCn1c(-c2ccc(OCc3ccccc3)cc2)nc2ccccc2c1=O`, in series [1], the IC50 is 12 µM and the 90% effect level (IC90) was put at 55 µM. The selectivity ratio in series [2] came to 10. Besides, the CC50 in series [3] came out at 118 µM.

In the case of `C[C@@H]1CC[C@H]2[C@@H](C)C(=O)O[C@@H]3O[C@@]4(C)CC[C@@H]1[C@]32OO4` [ARTEMISININ], in series [1], the IC50 was determined as 2 µM and the 90% effect level (IC90) was put at 19 µM. Moreover, the selectivity ratio in series [2] amounted to 160. Further, in series [3], the CC50 is not below 320 µM.

Regarding `O=C1C(O)=C([C@H]2CC[C@H](c3ccc(Cl)cc3)CC2)C(=O)c2ccccc21` [ATOVAQUONE], in series [1], the IC50 amounted to 0.2 µM and the IC90 amounted to 0.6 µM. In addition, the selectivity ratio in series [2] was 111. Also, the CC50 in series [3] is 21 µM.

Turning to `CN(C)c1ccc(-c2nc(O)c3ccccc3n2)cc1`, the result in series [4] was Active. Further, in series [5], the result was Active. In addition, the inhibition result in series [8] was “inactive”. In series [1], this compound displayed an IC50 of 14 µM and an IC90 of 281 µM. Moreover, the selectivity ratio in series [2] turned out to be 23. The CC50 in series [3] is not below 320 µM.

For the compound `CCCCCCn1c(-c2ccc(Br)cc2)nc2ccccc2c1=O`, the outcome in series [4] and in series [5] was Active. Besides, the inhibition result in series [7] was “Active”. The compound also gave an IC50 in series [1] of 60 µM. In series [1], this compound gave an IC90 of 193 µM. Also, the selectivity ratio in series [2] is 1. Further, in series [3], the CC50 was found to be 88 µM.

For the compound `O=c1[nH]c(-c2ccc3c(c2)OCO3)nc2ccccc12`, in series [1], the IC50 is 50 µM and the IC90 was determined as 443 µM. For the same compound, the selectivity ratio in series [2] came out at 6. In addition, the CC50 in series [3] is not below 320 µM.

In series [1], `CCCCCCCCCCn1c(-c2ccc(N(C)C)cc2)nc2ccccc2c1=O` gave an IC50 of 49 µM and an IC90 of 170 µM. For the same compound, the selectivity ratio in series [2] amounted to 7. Besides, the CC50 in series [3] is not below 320 µM.

On to `COc1ccc(-n2c(-c3ccc4c(c3)OCO4)nc3ccccc3c2=O)cc1`, for which, in series [1], the half-maximal inhibitory concentration (IC50) was found to be 40 µM and the IC90 amounted to 91 µM. Besides, in series [2], the selectivity ratio came to 8. Besides, the CC50 in series [3] is not below 320 µM.

In series [1], `O=c1c2ccccc2nc(-c2ccc(Br)cc2)n1-c1ccc(Br)cc1` had an IC50 of 44 µM and an IC90 of 126 µM. Besides, the selectivity ratio in series [2] is 7. In series [3], the CC50 was not below 320 µM.

Consider `COc1ccccc1-c1nc(O)c2ccccc2n1`, for which, in series [1], the IC50 was found to be 56 µM and the IC90 amounted to 266 µM. The selectivity ratio in series [2] amounted to 5. In series [3], the CC50 turned out to be 305 µM.
